Columns and labels:
[1] = system: expert panel members; assay: Sucrose Equivalent Value (SEV), perceived sweetness matched to stock sucrose solutions; assay type: in vivo; conditions: for effect on sweetness (SEV) of sucrose solutions, comparison of forms: 500 ppm in pH 3.2 buffered solutions with 0%, 3%, 5%, 7% and 9% sucrose; for SEV (%): 500 ppm potentiator alone in pH 3.2 buffered 5% sucrose solution; for effect on sweetness of sucrose solution (dose response curve): 0 to 1000 ppm in pH 3.2 buffered 5% sucrose solution
Procedure: One method of measuring the perceived sweetness of a solution is to match it with a stock sucrose solution of known concentration. In the present experiments, the compound of interest is added at a predetermined concentration to a pH 3.2 buffered solution containing 5% sucrose. A number of expert panel members then taste the solution and compare it to a battery of stock sucrose solutions ranging from 3% to 15% at increments of 1%. Each panel member decides which sucrose solution is equisweet with the solution containing the compound of interest. The mean value is then reported as the SEV. Results are reported to 1 decimal place.
In accordance with this methodology, 3-HB was added to a pH 3.2 buffered solution containing 5% sucrose to produce solutions containing from 0 to 1000 ppm 3-HB in 100 ppm increments. […] From FIG. 1 it is apparent that as the dosage of 3-HB increases so does the sweetness of the resultant solution. However the effect is non-linear with each incremental addition having a diminishing effect. The maximum sweetness attainable would appear to be about 7.9% SEV (based on a 5% sucrose solution).
The same methodology as described in Example 7 was repeated with 2,4-DHB in place of 3-HB, to produce the dose response curve for 2,4-DHB (FIG. 2). […] The maximum attainable sweetness would appear to be about 6.7% SEV (based on a 5% sucrose solution).
500 ppm of a sweetener potentiator was added to a pH 3.2 buffered solution containing 5% sucrose and the SEV of the resultant solution determined.
500 ppm of the sweetener potentiator then was added to a 5% sucrose solution containing 500 ppm 3-HB to produce a series of solutions. […] The use of 500 ppm of 3-HB alone results in an SEV of 6.9% whereas in all cases but two (2,4-DHB and 3,4-DHB) the addition of a second sweetener potentiator results in a little change or even a decrease in SEV. This is highly surprising considering that all of the potentiators are shown to have SEVs greater than 5%.
The methodology was repeated to produce a series of solutions containing 500 ppm 2,4-DHB and 500 ppm of a second sweetener potentiator.
500 ppm of 3-HB, 500 ppm of 2,4-DHB and 500 ppm of 3,4-dihydroxybenzoic acid (3,4-DHB) were added to a pH 3.2 buffered solution containing 5% sucrose and the SEV determined. The results are shown in FIG. 7 together with other combinations of 3-HB, 2,4-DHB and 3,4-DHB for comparison. The solution containing the combination of 3-HB and 2,4-DHB (hatched) has a much higher SEV (8.7%) than the combination of either 3,4-DHB and 3-HB (7.6%) or the combination of 3,4-DHB and 2,4-DHB (6.8%). The three-way combination of the embodiment (hatched) is better still with an SEV of 9.8%.
pH 3.2 buffered solutions were prepared containing 0%, 3%, 5%, 7% and 9% sucrose. 500 ppm of 2,4-DHB acid, 500 ppm of the sodium salt of 2,4-DHB and 500 ppm of the potassium salt of 2,4-DHB were added individually to each of the sucrose solutions. The SEV for each of the solutions was then determined.
The SEV of each sweetener solution was then evaluated after the addition 500 ppm of 3-HB, the addition of 500 ppm of 2,4-DHB and the addition of both 500 ppm 3-HB and 2,4-DHB.
500 ppm of 3-aminobenzoic acid and 500 ppm of 4-aminobenzoic acid were individually added to separate pH 3.2 buffered solutions containing 5% sucrose and the SEVs of the resultant solutions were determined. The SEV of 3-aminobenzoic acid was about 7%, i.e., increased the sweetness intensity of 5% sucrose to about 7%. The SEV of 4-aminobenzoic acid was about 5.5-6%, i.e., increased the sweetness intensity of 5% sucrose to about 5.5-6%.

[2] = cited from earlier work

Compound | effect on sweetness (SEV) of sucrose solutions, comparison of forms [1] | SEV (%) [1] | effect on sweetness of sucrose solution (dose response curve) [1] | also measured
O=C([O-])c1ccc(O)cc1O.[K+] [potassium salt of 2,4-DHB] | enhances the sweetness of the sucrose solution in every case |  |  | 
O=C(O)c1ccc(O)c(O)c1 [3,4-DHB, 3,4-dihydroxybenzoic acid] |  | 6.4% |  | 
O=C([O-])c1ccc(O)cc1O.[Na+] [sodium salt of 2,4-DHB] | enhances the sweetness of the sucrose solution in every case |  |  | 
O=C(O)c1ccc(O)cc1O [2,4-DHB, 2,4-dihydroxybenzoic acid] | enhances the sweetness of the sucrose solution in every case |  | enhances the sweetness of the sucrose solution | effect on sweetness of 5% sucrose solution ([2]; 0.2% 2,4-DHB, Canadian Patent No. 1208966): increase in sweetness; effect on sweetness intensity of sucralose and aspartame ([2]; FIGS. 1 and 2 and Tables 1 and 2 of U.S. Pat. No. 6,461,658): slightly inhibitory effect; effect on sweetness delivery profile of sucralose ([2]; U.S. Pat. No. 6,461,658): significantly reducing the length of time during which sucralose sweetness is perceived; effect on sweetness with aspartame ([2]; WO99/15032): increase sweetness synergistically
O=C(O)c1cccc(O)c1 [3-HB, 3-hydroxybenzoic acid] |  |  | enhances the sweetness of the sucrose solution | effect on sweetness of saccharin solution ([1]; 500 ppm, pH 3.2 saccharin solution of SEV about 5%): enhances the sweetness to a greater degree alone than in combination with 2,4-DHB
O=C(O)c1cc(O)c(O)c(O)c1 [3,4,5-THB, 3,4,5-tryhydroxybenzoic acid] |  | 5.1% |  | 

From US7851000B2, “Taste potentiator compositions and edible confectionery and chewing gum products containing same” (Cadbury Adams USA LLC, priority 2005, dated 2010)
